The results in this text go back to US9738720B2, “Monoclonal antibodies against HER2 epitope and methods of use thereof” (Mersana Therapeutics, Inc., priority 2014, dated 2017).

The subject of data set [1] is SKBR3 cells. In words: Internalization rate with anti-HER2 antibody combination. The format is cell-based. How it is done:
For the assay, 40,000 SKBR3 cells were plated in DMEM media containing 10% FBS, in each well of three 96 well plates (black colored plates with clear bottomed wells) and allowed to attach overnight at 37° in 5% CO2. The next day the cells were treated with antibodies as follows. […] The unbound antibody was removed by washing the cells two times with ice cold media. For detection, 5 μg/ml of an Alexa 647 labelled anti-human IgG Fab fragment was added to each well in ice cold media and incubated on ice for 1 hr. The unbound secondary antibody was removed by washing each well 2 times with ice cold media. […] Each treatment was carried out in triplicate. One set of wells were treated with the Alexa 647 labelled anti-human IgG monovalent Fab fragment alone, and the fluorescence measured in these wells was used to subtract background fluorescence.
One plate was left on ice to determine the time 0 values for each treatment, and the other plates were incubated at 37° C. After 1.5 hours, one plate from 37° C., and the time 0 plate, were washed 2 times with ice cold PBS and scanned using the 680 nm channel of a Licor Odyssey scanner. The fluorescence measured in each well is used as the total fluorescence for each treatment. The cells were then acid washed 2 times with 100 mM glycine, 50 mM KCl, and 20 mM […], pH2.2, then washed two times with ice cold PBS to remove the surface bound antibodies. The plates were scanned again to determine the amount of internalized fluorescence in each well. The 24 hour plates were analyzed the same way the next day.

In data set [2] the target is T1, HER2 protein in SKBR3 cells (Homo sapiens, UniProt P04626).
T1 construct: endogenous in cells; host or cells: SKBR3
In words: HER2 degradation, western analysis. The format is cell-based. Particulars: 4 hours; for HER2 remaining: 10 μg/ml each, combined with trastuzumab and pertuzumab; for full length HER2, percentage of untreated cells: 10 μg/ml, test antibody alone or in combination with trastuzumab. As for the experimental part:
The effect of anti-HER2 antibodies on HER2 degradation in SKBR3 cells was determined by western analysis after antibody treatment. 300,000 SKBR3 cells were plated in DMEM media with 10% FBS in each well of 6 well culture dishes and grown overnight at 37° in 5% CO2 atmosphere. The media was removed and replaced with fresh media containing 10 μg/ml of each antibody and incubated for 4 hours. The cells were washed once with ice cold PBS and lysed by addition of 200 μl of buffer containing 50 mM Tris HCl, pH 7.4, 150 mM NaCl, 1% Triton X-100, cOmplete Protease Inhibitor cocktail tablets (Roche, Indianapolis, Ind.) and PhosSTOP phosphatase Inhibitor cocktail tablets (Roche, Indianapolis, Ind.). Lysates were centrifuged at 15,000 rpm for 15 minutes at 4° to remove insoluble debris. […] The separated proteins were transferred to a nitrocellulose membrane on a semi-dry electrophoretic transfer system (Bio-Rad, Transblot system) for 30 minutes at 10 volts in transfer buffer (Life Technologies, Cat.# NP0006) containing 10% methanol. […] After the incubation the membrane was washed 3 times with 10 ml TTBS and then incubated for 1 hour with secondary antibodies: a goat anti-rabbit IgG conjugated to IRdye® 800CW (Li-Cor, Cat.#926-32211) and a goat anti-mouse IgG conjugated to IRdye® 680RD (Li-Cor, Cat.#926-68070) both diluted 1:10,000 in blocking buffer. The membrane was again washed 3 times with 10 ml TTBS and scanned on a Li-Cor Odyssey scanner. The bands corresponding to full length HER2 protein and to actin were quantified using the scanner software. Each HER2 band was normalized to the actin band and expressed as a percentage of HER2 protein from cells that were not treated with any anti-HER2 antibodies.

In data set [3] the test system is TOV-21G cells. Nature of the data set: TOV-21G mouse tumor xenograft model. The format is in vivo. As to conditions: FIG. 14; Example 16E 5 mg/kg or 2 mg/kg; Kadcyla 10 mg/kg; IV single dose. The source says: (§1) Tumor growth inhibition (% TGI) was defined as the percent difference in median tumor volumes (MTVs) between treated and control groups.
In a PR response, the tumor volume was 50% or less of its Day 1 volume for three consecutive measurements during the course of the study, and equal to or greater than 13.5 mm^3 for one or more of these three measurements. In a CR response, the tumor volume was less than 13.5 mm3 for three consecutive measurements during the course of the study. An animal with a CR response at the termination of a study was additionally classified as a tumor-free survivor (TFS). Animals were monitored for regression responses.
Female NCr nu/nu were inoculated subcutaneously with TOV-21G cells (n=10 for each group). Test compounds or vehicle were dosed IV as a single dose on day 1 or as indicated. Tumor size was measured at the times indicated in FIGS. 8 to 18 using digital calipers. Tumor volume was calculated and was used to determine the delay in tumor growth. Mice were sacrificed when tumors reached a size of 800 to 1500 mm^3. Tumor volumes are reported as the mean±SEM for each group.

For data set [4], the system named is H522 cells. Nature of the data set: H522 mouse tumor xenograft model. The format is in vivo. As to conditions: FIG. 15; Example 16E 5 mg/kg; Example 17B 5 mg/kg; Kadcyla 10 mg/kg; IV single dose.
The subject of data set [5] is SKOV3 cells. In words: SKOV3 mouse tumor xenograft model. The format is in vivo. As to conditions: FIG. 16.
In data set [6] the test system is SNU-5 cells. In words: SNU5 mouse tumor xenograft model. The format is in vivo. As to conditions: FIG. 13.
Data set [7] concerns Calu-3 cells. Nature of the data set: Calu-3 mouse tumor xenograft model. As to conditions: FIG. 17, 5 mg/kg IV single dose at day 1. The format is in vivo.
Data set [8] deals with NCI-N87 cells. In words: NCI-N87 mouse tumor xenograft model. The format is in vivo. Particulars: FIG. 12; Example 16F […] single dose day 1; trastuzumab 15 mg/kg + pertuzumab 15 mg/kg weekly for 3 weeks.
The subject of data set [9] is MAXF_1162 HER2 3+. In words: MAXF_1162 HER2 3+ patient derived xenograft model. As to conditions: FIG. 19, n=10. The format is in vivo. How it is done:
as §1
(§2) Treatment efficacy was determined from the incidence and magnitude of regression responses of the tumor size observed during the study. […] In a PR response, the tumor volume was 50% or less of its Day 1 volume for three consecutive measurements during the course of the study, and equal to or greater than 13.5 mm^3 for one or more of these three measurements. In a CR response, the tumor volume was less than 13.5 mm3 for three consecutive measurements during the course of the study. An animal with a CR response at the termination of a study was additionally classified as a tumor-free survivor (TFS). Animals were monitored for regression responses.

In data set [10] the test system is BRE-0333 HER2 1+. Nature of the data set: BRE-0333 HER2 1+ patient derived xenograft model. The format is in vivo. Particulars: FIG. 18; 3 mg/kg IV single dose; n=8. How it is done:
as §1, §2

Data set [11] relates to BT474 tumor fragments. In words: BT474 mouse tumor xenograft model. Particulars: FIG. 20; 5 mg/kg or 2 mg/kg IV single dose at day 1. The format is in vivo.
The subject of data set [12] is HER2-driven tumor models. Nature of the data set: HER2-driven tumor models, combination with trastuzumab and pertuzumab. The format is in vivo.
Data set [13] can be described thus: Pharmacokinetics and tolerability in non-human primates. As to conditions: therapeutic doses.
The conditions of data set [14]: in vivo.
Data set [15] concerns low HER2-expressing breast and gastric cancer models. Nature of the data set: Low HER2-expressing breast and gastric cancer models. The format is in vivo. Particulars: conjugate single doses of 1 mg/kg or […]; Kadcyla at doses of 10 mg/kg and above.
Data set [16] deals with SKBR3 cells. Nature of the data set: HER2 internalization in SKBR3 cells by fluorescence microscopy. The format is cell-based. Particulars: 90 minutes, in combination with trastuzumab-Alexa-647 and pertuzumab. As for the experimental part: The effect of a combination of anti-HER2 antibodies on the HER2 internalization in SKBR3 cells was investigated by fluorescence microscopy. […] SKBR3 cells were seeded in 4 chamber microscope slides and allowed to attach by overnight growth in DMEM media (ATCC, Manassas, Va., Cat.#30-2002) with 10% fetal bovine serum (FBS) (Gibco®, Life Technologies, Grand Island, N.Y., Cat.#16140-071) at 37° in 5% CO2. […] The location of trastuzumab was visualized using fluorescence microscope.

The test system of data set [17] is phosphorylated AKT in BT474 cells. Nature of the data set: Ligand-independent HER2 signaling in BT474 cells, phospho-AKT western. The format is cell-based. As to conditions: 10 μg/ml antibody, 4 hours, listed as HT19B.
Experimental: The effect of anti-HER2 antibodies on HER2 signaling in BT474 cells (ATCC, HTB-20) was determined by measuring changes in the amount of phosphorylated AKT after a 4 hour antibody treatment. BT474 cells (300,000 cells) were plated in DMEM media with 10% FBS in each well of 6 well culture dishes and grown overnight at 37° in 5% CO2 atmosphere. The media was removed and replaced with fresh media containing 10 μg/ml of test antibody and incubated for 4 hours. The cells were washed once with ice cold PBS and lysed by addition of 200 μl of buffer containing 50 mM Tris HCl, pH 7.4, 150 mM NaCl, 1% Triton X-100, cOmplete Protease Inhibitor cocktail tablets (Roche, Indianapolis, Ind.) and PhosSTOP phosphatase Inhibitor cocktail tablets (Roche, Indianapolis, Ind.). Lysates were centrifuged at 15,000 rpm for 15 minutes at 4° to remove insoluble debris. The levels of phosphorylated AKT were determined by western analysis. […] The bands corresponding to AKT, phospho-AKT, and to actin were quantified using the scanner software. Each phospho-AKT band was normalized to the total AKT band and expressed as a percentage of phospho-AKT protein from cells that were not treated with any anti-HER2 antibodies.
Setting [18] is: with Trastuzumab and Pertuzumab, 0 hr.
Where [19] appears, read: with Trastuzumab and Pertuzumab, 24 hrs.
Setting [20] is: with Trastuzumab and Pertuzumab, […].

As to “XMT 1517: fully human anti-HER2 IgG1 monoclonal antibody, heavy chain SEQ ID NO: 1, light chain SEQ ID NO: 2”, the Percent internalized in data set [1] (antibody alone, 0 hr) is reported as 4%; in data set [1] (antibody alone, 24 hrs), 83%; in [1] (antibody alone, […]) it was 11%; in data set [1] (setting [18]), 4%; in data set [1] (setting [19]) it was 107%; in [1] (with Trastuzumab, 0 hr) it was 3%. Moreover, the Percent internalized in data set [1] (with Trastuzumab, 24 hrs) was 106%; in data set [1] (with Trastuzumab, […]), 17%. Moreover, the HER2 remaining in data set [2] is listed as 40%.

With “XMT 1518: affinity matured fully human anti-HER2 IgG1 antibody, heavy chain SEQ ID NO: 3, light chain SEQ ID NO: 4”, the Percent internalized in data set [1] (antibody alone, 24 hrs) was 88%; in data set [1] (antibody alone, […]), 16%; in data set [1] (setting [18]), 2%; in data set [1] (setting [20]), 90%; in [1] (with Trastuzumab, 0 hr), 2%; in data set [1] (with Trastuzumab, 24 hrs), 106%. Further, the Percent internalized in [1] (with Trastuzumab, […]) amounted to 41%. Further, the HER2 remaining in [2] is 20%. For the same substance, the “full length HER2, percentage of untreated cells” value in data set [2] was 78%.

For “XMT 1519-(EG2-MI-(10 kDa PHF-BA-(AF-HPA-Ala))) [Example 16E]”, the tumor response result in [3] and in [4] was “tumor retardation” in each case. In addition, the “complete responses (number of animals)” value in data set [5] (5 mg/kg IV single dose, n=10) is 10. This substance had a regressions in data set [5] (5 mg/kg IV single dose, n=10) of 100%. Also, the tumor free survivors in data set [6] (2 mg/kg IV single dose) and in data set [6] (5 mg/kg IV single dose) was 100% throughout.

“XMT 1519-(EG2-MI-(10 kDa PHF-BA-(AF-HPA-Ala))) [Example 16F]”: the “remained tumor free (number of animals)” value in [7] (Day 60) is reported as “six”. Besides, in data set [7] (n=10), the “complete responses (number of animals)” value is “eight”, the “partial responses (number of animals)” value was “two” and the regression responses is given as 100%. Also, in data set [8], the “partial response out of ten” value was “one”.

In the case of “XMT 1519-(EG2-MI-(10 kDa PHF-BA-(AF-HPA-Ala))) [Example 16H]”, the “regression responses and tumor free survivors” value in data set [9] (1 mg/kg IV single dose at day 1) and in data set [9] (3 mg/kg IV single dose at day 1) was 100% in each case. Moreover, the tumor response entry in data set [10] is given as “tumor retardation”; in data set [11] it was “complete tumor regressions”.

Consider XMT 1519-(EG2-MI-(PHF-BA-(AF-HPA-Ala))), for which the “efficacy in combination with trastuzumab and pertuzumab” value in data set [12] is listed as “synergistic efficacy”. For the same substance, in [13], the tolerability result is listed as “well tolerated”. Besides, in data set [14], the pharmacokinetic profile result is “excellent pharmacokinetic profile”. The tumor response entry in data set [15] is “complete regression”.

“XMT 1519: fully human anti-HER2 IgG1 monoclonal antibody, heavy chain SEQ ID NO: 5, light chain SEQ ID NO: 6”: the Percent internalized came to 2% in [1] (antibody alone, 0 hr); 83% in data set [1] (antibody alone, 24 hrs); 2% in data set [1] (setting [18]); 88% in data set [1] (setting [19]); 83% in data set [1] (setting [20]); 2% in [1] (with Trastuzumab, 0 hr). Moreover, the Percent internalized in data set [1] (with Trastuzumab, 24 hrs) worked out at 107%. The “effect on HER2 internalization and localization” value in data set [16] was “promotes the internalization and trafficking of HER2 to the lysosomes”. Besides, in [2], the HER2 remaining came out at 42%.

“XMT 1520: affinity matured fully human anti-HER2 IgG1 antibody, heavy chain SEQ ID NO: 7, light chain SEQ ID NO: 8”: in [17], the “AKT phosphorylation, percentage of untreated cells” value was “about 30%”. Moreover, the Percent internalized turned out to be 2% in data set [1] (antibody alone, 0 hr); 78% in data set [1] (antibody alone, 24 hrs); 14% in [1] (antibody alone, […]); 3% in data set [1] (setting [18]); 101% in data set [1] (setting [19]); 89% in [1] (setting [20]). Further, the Percent internalized is recorded as 2% in data set [1] (with Trastuzumab, 0 hr); 100% in data set [1] (with Trastuzumab, 24 hrs); 23% in data set [1] (with Trastuzumab, […]). In addition, in data set [2], the HER2 remaining stood at 31%. Further, the “full length HER2, percentage of untreated cells” value in [2] was 68%.

On to “rituximab-(EG2-MI-(10 kDa PHF-BA-(AF-HPA-Ala))) [Example 17B, reference compound]”, for which the tumor response result in data set [4] is on record as “did not attain the threshold for therapeutic activity”; in data set [5] (Kadcyla 10 mg/kg, Example 17B 5 mg/kg, IV single dose), “did not attain the threshold for therapeutic activity”.
